Several values for one entry are separate records, joined by “and”; a condition that tells them apart may be missing. Equal values may be shown once.
Tested on: oral mucositis induced by acute radiation in hamsters
Experiment: Oral mucositis induced by acute radiation in hamsters
Format: in vivo, Golden Hamsters
Procedure: Referring to FIG. 11, FIG. 11 is a table 1100 showing a study design for an assessment of RRx-001 for the treatment of oral mucositis induced by acute radiation in hamsters. Mucositis was induced in 56 male Golden Hamsters via an acute radiation dose of 40 Gy directed to their left buccal cheek pouch. RRX-001 was administered with a vehicle comprising a 1:2 vol; vol ratio of N,N-Dimethylacetamide/40% Polyethylene Glycol (DMA:PBG). […] Otherwise, dosing was administered according to the “Dose Schedule” column of the table 1100. The study lasted 28 days. Mucositis was evaluated in hamsters from day 6 through day 28.
Starting at day 6 of the study and continuing every second day thereafter (day 8, 10, 12, 14, 16, 18, 20, 22, 24, 26, and 28), the hamsters were photographed and evaluated for mucositis scoring. The hamsters were anesthetized and the left pouch everted to evaluate a score each hamster based on a severity of mucositis. The scores, on a scale of 0-5, are defined as follows: • “0” means a pouch is completely healthy. • “1” means light to […] erythema and vasodilation and no erosion of mucosa. • “2” means severe erythema and vasodilation. Erosion of superficial aspects of mucosa leaving denuded areas. Decreased stippling of mucosa. • “3” means formation of off-white ulcers in one or more places. Ulcers may have a yellow/gray color due to pseudomembrane. Cumulative size of ulcers should equal less than or equal to ¼ of the pouch. Severe erythema and vasodilation. • “4” means a cumulative seize of ulcers should equal about ½ of the pouch. Loss of pliability. Severe erythema and vasodilation. • “5” means virtually all of pouch is ulcerated. Loss of pliability (pouch can only partially be extracted from mouth).
FIG. 15B is a bar graph 1550 showing a percent of cumulative animal days with mucositis scores greater than or equal to 3 for days 6-28. Statistical significance of the observed differences was calculated using chi-squared analysis.
FIG. 16B is a bar graph 1650 showing a percent of cumulative animal days with mucositis scores greater than or equal to 3 for days 6-28. Statistical significance of the observed differences was calculated using chi-squared analysis.
Referring to FIG. 18, FIG. 18 is a table 1800 showing a percent of hamsters with ulceration by day with mucositis scores of greater than or equal to 3. Each data point represents a percentage of hamsters in each group on a day that had both a mucositis score of 3 or greater and open ulcers. Like FIGS. 17A and 17B, horizontal shading denotes a decrease in mucositis scores and vertical shading denotes an increase in mucositis scores.

## O=C(CBr)N1CC([N+](=O)[O-])([N+](=O)[O-])C1 [RRx-001, 2-bromo-1-(3,3-dinitroazetidin-1-yl) ethan-1-one]
Day 12, group 2 (10 mg/kg, discontinued after day 1)
  percent of hamsters with ulceration (mucositis score ≥3): 40%
Day 28, group 2 (10 mg/kg, discontinued after day 1)
  percent of hamsters with ulceration (mucositis score ≥3): 40%
Day 28, group 2 (10 mg/kg, dosing discontinued after day 1)
  mean daily mucositis score: approximately 2.2
Day 28, group 3 (3 mg/kg)
  mean daily mucositis score: approximately 2.7
Day 28, group 5 (10 mg/kg, discontinued after day 1)
  percent of hamsters with ulceration (mucositis score ≥3): 57.1%
Day 28, group 5 (10 mg/kg, dosing discontinued after day 1)
  mean daily mucositis score: approximately 2.6
Day 28, group 6 (3 mg/kg)
  mean daily mucositis score: approximately 2.7
Day 28, groups 3 and 6 (3 mg/kg)
  percent of hamsters with ulceration (mucositis score ≥3): 75.0%
Day 28, groups 4 and 7 (1 mg/kg)
  percent of hamsters with ulceration (mucositis score ≥3): 62.5%
Days 6-28, group 3 (3 mg/kg)
  percent of cumulative animal days with mucositis score greater than or equal to 3: 63.54%
Days 6-28, group 6 (3 mg/kg), 3 mg/kg
  percent of cumulative animal days with mucositis score greater than or equal to 3: 53.45% and 63.54%
Groups 2 and 5 (10 mg/kg)
  body weight change: initially lost weight, but rebounded
  tolerability of dosing: discontinued after day 1 due to adverse side effects

Source: patent US20260240810A1, “COMPOSITIONS AND METHODS FOR REDUCING ADVERSE SIDE EFFECTS IN CANCER TREATMENT” (priority 2022, published 2026)
